Laboratory results taken from patent US8987249B2, “Substituted 2-Aza-bicyclo[2.2.1]heptane-3-carboxylic acid (benzyl-cyano-methyl)-amides inhibitors of Cathepsin C” (Boehringer Ingelheim International GmbH, priority 2013, dated 2015).

Key:
[1] = biological target: recombinant human DPPI (Cathepsin C) (Homo sapiens (Human), UniProt P53634); assay: Inhibition of human DPPI (Cathepsin C); assay type: biochemical; conditions: substrate Gly-Arg-AMC
Description: Inhibition of Human DPPI (Cathepsin C)
Bovine serum albumin (BSA; Prod. No. A3059) and Dithiothreitol (DTT; Prod. No D0632) were from Sigma. […] The DPP1 inhibitor Gly-Phe-DMK was purchased from MP Biomedicals (Prod.-No. 03DK00625). The recombinant human DPPI was purchased from Prozymex. All other materials were of highest grade commercially available.
The following buffers were used: MES buffer: 25 mM MES, 50 mM NaCl, 5 mM DTT, adjusted to pH 6.0, containing 0.1% BSA; TAGZyme Buffer: 20 mM NaH2PO4, 150 mM NaCl adjusted to pH 6.0 with HCl
Then, 5 μL of substrate in MES buffer (final concentration 50 μM) were added. The microtiter plates were then incubated at room temperature for 30 min. Then, the reaction was stopped by adding 10 μL of Gly-Phe-DMK in MES-buffer (final concentration 1 μM).
The analysis of the data was performed by calculating the percentage of fluorescence in the presence of test compound in comparison to the fluorescence of the vehicle control after subtracting the background fluorescence using the following formula: (RFU(sample)−RFU(background))*100/(RFU(control)−RFU(background))
Data from these calculations were used to generate IC50 values for inhibition of DPPI, respectively.

[2] = biological target: recombinant human Cathepsin K (Homo sapiens (Human), UniProt P43235); assay: Inhibition of human Cathepsin K; assay type: biochemical; conditions: substrate Z-Gly-Pro-Arg-AMC
From the text: Inhibition of Human Cathepsin K
Materials: Microtiterplates (Optiplate-384 F were purchased from PerkinElmer (Prod. No. 6007270). The substrate Z-Gly-Pro-Arg-AMC was from Biomol (Prod.-No. P-142). L-Cysteine (Prod. No. 168149) was from Sigma. Sodium acetate was from Merck (Prod.-No. 6268.0250), EDTA was from Fluka (Prod.-No. 03680). The inhibitor E-64 was purchased from Sigma (Prod.-No. E3132). The recombinant human Cathepsin K proenzyme was purchased from Biomol (Prod. No. SE-367). All other materials were of highest grade commercially available.
The following buffers were used: Activation buffer: 32.5 mM sodium acetate, adjusted to pH 3.5 with HCl; Assay buffer: 150 mM sodium acetate, 4 mM EDTA, 20 mM L-Cysteine, adjusted to pH 5.5 with HCl,
To activate the proenzyme, 5 μl procathepsin K were mixed with 1 ul activation buffer, and incubated at room temperature for 30 min.
5 μL test compound (final concentration 0.1 nM to 100 μM) in aqua bidest (containing 4% DMSO, final DMSO concentration 1%) were mixed with 10 uL of Cathepsin K in assay buffer (final concentration 2 ng/μL) and incubated for 10 min. […] The plates were then incubated at room temperature for 60 min. Then, the reaction was stopped by adding 10 μL of E64 in assay buffer (final concentration 1 μM). The fluorescence in the wells was determined using a Molecular Devices SpectraMax M5 Fluorescence Reader (Ex 360 nm, Em 460 nm).
Each assay microtiter plate contains wells with vehicle controls (1% DMSO in bidest) as reference for non-inhibited enzyme activity (100% Ctl; high values) and wells with inhibitor (E64 in bidest+1% DMSO, final concentration […]) as controls for background fluorescence (0% Ctl; low values). The analysis of the data was performed by calculating the percentage of fluorescence in the presence of test compound in comparison to the fluorescence of the vehicle control after subtracting the background fluorescence: (RFU(sample)−RFU(background))*100/(RFU(control)−RFU(background))
Data from these calculations were used to generate IC50 values for inhibition of Cathepsin K, respectively.

recombinant human DPPI (Cathepsin C), sequence (P53634 231-394): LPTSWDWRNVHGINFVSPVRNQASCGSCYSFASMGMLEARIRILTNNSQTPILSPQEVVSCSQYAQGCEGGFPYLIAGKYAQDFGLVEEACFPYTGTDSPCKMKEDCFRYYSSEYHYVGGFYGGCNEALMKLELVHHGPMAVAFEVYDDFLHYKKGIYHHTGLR
recombinant human DPPI (Cathepsin C), sequence (P53634 395-463): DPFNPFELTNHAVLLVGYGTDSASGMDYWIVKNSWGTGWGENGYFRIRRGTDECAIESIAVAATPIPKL
recombinant human DPPI (Cathepsin C), sequence (P53634 25-134): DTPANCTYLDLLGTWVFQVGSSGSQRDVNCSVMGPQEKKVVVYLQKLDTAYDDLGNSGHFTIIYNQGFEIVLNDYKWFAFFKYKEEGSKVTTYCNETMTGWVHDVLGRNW
recombinant human Cathepsin K, sequence (P43235 115-329): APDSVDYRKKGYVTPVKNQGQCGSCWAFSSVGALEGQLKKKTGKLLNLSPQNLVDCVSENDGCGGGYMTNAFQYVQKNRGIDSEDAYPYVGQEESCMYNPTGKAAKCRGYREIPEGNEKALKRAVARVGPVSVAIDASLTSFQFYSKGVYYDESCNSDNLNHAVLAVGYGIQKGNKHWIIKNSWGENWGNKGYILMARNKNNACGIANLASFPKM

Row | Compound | IC50 [1] | IC50 [2]
1 | CC(=O)n1nc(-c2ccc(CC(C#N)NC(=O)[C@H]3N[C@@H]4CC[C@H]3C4)c(F)c2)cc1C (stereo partly drawn) [Example 7, (1S,2S,4R)—N-[2-[4-(1-acetyl-5-methyl-pyrazol-3-yl)-2-fluoro-phenyl]-1-cyano-ethyl]-3-azabicyclo[2.2.1]heptane-2-carboxamide] | 1.9 nM | 8 µM
2 | N#CC(Cc1ccc(-c2ccc3c(c2)COC3=O)cc1F)NC(=O)[C@H]1N[C@@H]2CC[C@H]1C2 (stereo partly shown) [Example 11] | 1.7 nM | 2.6 µM
3 | COC(=O)Cn1cc(-c2ccc(C[C@@H](C#N)NC(=O)[C@H]3N[C@@H]4CC[C@H]3C4)c(F)c2)cn1 [Example 13] | 1.9 nM | 3.4 µM
4 | COC(=O)c1cc(-c2ccc(C[C@@H](C#N)NC(=O)[C@H]3N[C@@H]4CC[C@H]3C4)c(F)c2)cs1 [Example 17] | 2.6 nM | 6.1 µM
5 | N#C[C@H](Cc1ccc(-c2ccsc2)cc1F)NC(=O)[C@H]1N[C@@H]2CC[C@H]1C2 [Example 18] | 2.7 nM | 3 µM
6 | CC(=O)n1cc(-c2ccc(C[C@@H](C#N)NC(=O)[C@H]3N[C@@H]4CC[C@H]3C4)c(F)c2)cn1 [Example 20] | 3.1 nM | 2.9 µM
7 | CC(C)(C)n1cc(-c2ccc(C[C@@H](C#N)NC(=O)[C@H]3N[C@@H]4CC[C@H]3C4)c(F)c2)cn1 [Example 23] | 3.7 nM | 3.8 µM
8 | Cc1ncc(-c2ccc(C[C@@H](C#N)NC(=O)[C@H]3N[C@@H]4CC[C@H]3C4)c(F)c2)s1 [Example 25] | 3.9 nM | 6.3 µM
9 | CCn1cc(-c2ccc(C[C@@H](C#N)NC(=O)[C@H]3N[C@@H]4CC[C@H]3C4)c(F)c2)cn1 [Example 26] | 4 nM | 3.6 µM
10 | Cc1ccc(-c2ccc(C[C@@H](C#N)NC(=O)[C@H]3N[C@@H]4CC[C@H]3C4)c(F)c2)o1 [Example 27] | 4 nM | 3.2 µM
11 | CCCn1cc(-c2ccc(C[C@@H](C#N)NC(=O)[C@H]3N[C@@H]4CC[C@H]3C4)c(F)c2)cn1 [Example 30] | 4.2 nM | 3.1 µM
12 | N#C[C@H](Cc1ccc(N2CCN(c3ccccc3)CC2)cc1F)NC(=O)[C@H]1N[C@@H]2CC[C@H]1C2 [Example 32, (1S,2S,4R)—N-[(1S)-1-cyano-2-[2-fluoro-4-(4-phenylpiperazin-1-yl)phenyl]ethyl]-3-azabicyclo[2.2.1]heptane-2-carboxamide] | 4.5 nM | 3.9 µM
13 | Cc1c(-c2ccc(C[C@@H](C#N)NC(=O)[C@H]3N[C@@H]4CC[C@H]3C4)c(F)c2)cnn1C [Example 39] | – | 7.8 µM
14 | Cc1cc(-c2ccc(C[C@@H](C#N)NC(=O)[C@H]3N[C@@H]4CC[C@H]3C4)c(F)c2)n(C)n1 [Example 63] | – | 6.2 µM
15 | Cc1c(-c2ccc(C[C@@H](C#N)NC(=O)[C@H]3N[C@@H]4CC[C@H]3C4)c(F)c2)cnn1C [Example 65] | – | 11.7 µM
16 | CC(C)n1cc(-c2ccc(CC(C#N)NC(=O)[C@H]3N[C@@H]4CC[C@H]3C4)c(F)c2)cn1 (stereo partly shown) [Example 68] | – | 7.3 µM
17 | COc1cccc(-c2cn(-c3ccc(C[C@@H](C#N)NC(=O)[C@H]4N[C@@H]5CC[C@H]4C5)c(F)c3)nn2)c1 [Example 94] | – | 4.9 µM
18 | CN(C)CCN1C(=O)Cc2cc(-c3ccc(C[C@@H](C#N)NC(=O)[C@H]4N[C@@H]5CC[C@H]4C5)c(F)c3)ccc21 [Example 279] | 5.5 nM | –
19 | CC(C)N1CCC(c2ccc(C[C@@H](C#N)NC(=O)[C@H]3N[C@@H]4CC[C@H]3C4)c(F)c2)CC1 [Example 280] | 21.2 nM | –
20 | CN(C)C(=O)c1cnn(-c2ccc(C[C@@H](C#N)NC(=O)[C@H]3N[C@@H]4CC[C@H]3C4)c(F)c2)c1 [Example 286] | 38.9 nM | –
21 | N#C[C@H](Cc1ccc(-n2cc(C(=O)N3CCOCC3)cn2)cc1F)NC(=O)[C@H]1N[C@@H]2CC[C@H]1C2 [Example 287] | 39.7 nM | –
22 | N#C[C@H](Cc1ccc(OCc2ccccc2)cc1F)NC(=O)[C@H]1N[C@@H]2CC[C@H]1C2 [Example 290] | 20.6 nM | –
23 | COC(=O)c1ccc2[nH]c(=O)c3cc(CC(C#N)NC(=O)[C@H]4N[C@@H]5CC[C@H]4C5)ccc3c2c1 (stereo partly shown) [Example 299] | 3.2 nM | –

Row | Compound | IC50 [1] | IC50 [2]
24 | N#Cc1cc2c(cc1C(F)(F)F)[nH]c(=O)c1cc(CC(C#N)NC(=O)[C@H]3N[C@@H]4CC[C@H]3C4)ccc12 (stereo partly shown) [Example 302] | 4.7 nM | –
25 | N#CC(Cc1ccc2c(c1)c(=O)[nH]c1ccc(Cl)cc12)NC(=O)[C@H]1N[C@@H]2CC[C@H]1C2 (stereo partly shown) [Example 304] | 6 nM | –
26 | N#Cc1ccc2c(c1)[nH]c(=O)c1cc(CC(C#N)NC(=O)[C@H]3N[C@@H]4CC[C@H]3C4)ccc12 (stereo partly shown) [Example 309] | 9.1 nM | –
27 | COC(=O)c1cccc2c1[nH]c(=O)c1cc(CC(C#N)NC(=O)[C@H]3N[C@@H]4CC[C@H]3C4)ccc12 (stereo partly shown) [Example 311] | 9.9 nM | –
28 | COc1ccc2[nH]c(=O)c3cc(CC(C#N)NC(=O)[C@H]4N[C@@H]5CC[C@H]4C5)ccc3c2c1 (stereo partly shown) [Example 312] | 11 nM | –
29 | N#CC(Cc1ccc2c(cnc3ccccc32)c1)NC(=O)[C@H]1N[C@@H]2CC[C@H]1C2 (stereo partly shown) [Example 316] | 42.4 nM | –
30 | N#C[C@H](Cc1cc(-c2cccc(O)n2)ccc1F)NC(=O)[C@H]1N[C@@H]2CC[C@H]1C2 [Example 317] | 52 nM | –
31 | CN1CCN(c2ccc(F)c(C[C@@H](C#N)NC(=O)[C@H]3N[C@@H]4CC[C@H]3C4)c2)CC1 [Example 318] | 212 nM | –
32 | N#C[C@H](Cc1ccc(N2C3CCC2CN(C2CCOC2)C3)cc1F)NC(=O)[C@H]1N[C@@H]2CC[C@H]1C2 (stereo partly shown) [Example 329] | 7 nM | –
33 | N#C[C@H](Cc1ccc(-c2ccc3c(c2)CC(=O)N3C2CCNCC2)cc1F)NC(=O)[C@H]1N[C@@H]2CC[C@H]1C2 [Example 334] | 22 nM | –
34 | N#C[C@H](Cc1ccc(N2CCN(C3CCOCC3)CC2)cc1F)NC(=O)[C@H]1N[C@@H]2CC[C@H]1C2 [Example 336] | 24.5 nM | –
35 | N#C[C@H](Cc1ccc(C2CCN(C3CCOC3)CC2)cc1F)NC(=O)[C@H]1N[C@@H]2CC[C@H]1C2 (stereo partly shown) [Example 337] | 28.2 nM | –
36 | N#C[C@H](Cc1ccc(C2CCCN(C3CCOC3)C2)cc1F)NC(=O)[C@H]1N[C@@H]2CC[C@H]1C2 (stereo partly shown) [Example 338] | 44.3 nM | –
37 | CN1CCN(S(=O)(=O)c2cc(-c3ccc(C[C@@H](C#N)NC(=O)[C@H]4N[C@@H]5CC[C@H]4C5)c(F)c3)ccc2F)CC1 [Example 339] | 1.3 nM | –
38 | CN1CCCN(S(=O)(=O)c2ccc(-c3ccc(C[C@@H](C#N)NC(=O)[C@H]4N[C@@H]5CC[C@H]4C5)c(F)c3)cc2)CC1 [Example 340] | 1.8 nM | –
39 | COCCN1CCC(c2ccc(C[C@@H](C#N)NC(=O)[C@H]3N[C@@H]4CC[C@H]3C4)c(F)c2)C1 (stereo partly shown) [Example 350] | 38.6 nM | –
40 | N#C[C@H](Cc1ccc2c(c1F)CCC(N1CCOCC1)C2)NC(=O)[C@H]1N[C@@H]2CC[C@H]1C2 (stereo partly shown) [Example 351] | 82.8 nM | –
41 | N#C[C@H](Cc1ccc(N2CCC3COCC3C2)cc1F)NC(=O)[C@H]1N[C@@H]2CC[C@H]1C2 (stereo partly shown) [Example 352] | 17.3 nM | –
42 | CN1CC2CCN(c3ccc(C[C@@H](C#N)NC(=O)[C@H]4N[C@@H]5CC[C@H]4C5)c(F)c3)C2C1 (stereo partly shown) [Example 353] | 6.5 nM | –
43 | N#C[C@H](Cc1ccc(N2CCC3CN(C4CCOC4)CC32)cc1F)NC(=O)[C@H]1N[C@@H]2CC[C@H]1C2 (stereo partly shown) [Example 354] | 6.8 nM | –
44 | CN1CCO[C@@H]2CN(c3ccc(C[C@@H](C#N)NC(=O)[C@H]4N[C@@H]5CC[C@H]4C5)c(F)c3)C[C@@H]21 [Example 355] | 22.4 nM | –
45 | CN1CCO[C@@H]2CCN(c3ccc(C[C@@H](C#N)NC(=O)[C@H]4N[C@@H]5CC[C@H]4C5)c(F)c3)C[C@@H]21 [Example 356] | 20 nM | –
46 | CN1CCO[C@H]2CN(c3ccc(C[C@@H](C#N)NC(=O)[C@H]4N[C@@H]5CC[C@H]4C5)c(F)c3)CC[C@@H]21 [Example 357] | 33.8 nM | –
